Test results from publication PMC2829385 (The Journal of investigative dermatology, 2009).
Where “and” joins values, the source holds several entries; their conditions need not be identical. Identical values can stand only once. Entries after “also recorded” stand apart in the source; their conditions may differ. Counter-ions that a name gives are not always drawn.

Tests used:
[1] = system: ATR-dependent serine 345 residue of Chk1; assay: Western blot of UVB-induced Chk1 Ser345 phosphorylation in keratinocytes; format: cell-based, human; conditions: 2 mM caffeine, 75 mJ/cm^2 UVB (Figure 2a)
[2] = humans drinking 2–5 cups of coffee per day; ref de Leon et al., 2003; cited from earlier work
[3] = system: ATM; conditions: read-out: IC50 for ATM; ref Sarkaria et al., 1999; cited from earlier work
[4] = system: UV-induced skin carcinogenesis; conditions: mice, oral caffeine as drinking fluid 0.4 mg/ml; ref Huang et al., 1997; cited from earlier work
[5] = system: primary human keratinocytes; assay: UVB-induced apoptosis, sub-2N DNA content by flow cytometry; format: cell-based
[6] = system: phosphorylation of Chk1 on Ser345; conditions: mice, oral caffeine in drinking water 0.4 mg/ml (2 mM); ref Lu et al., 2008; cited from earlier work
[7] = system: primary human keratinocytes; assay: Western blot of UVB-induced caspase 3 and PARP cleavage in keratinocytes; format: cell-based; conditions: 2 mM caffeine, 75 mJ/cm^2 UVB, 8 h (Figure 1a)
[8] = target: cAMP phosphodiesterase; conditions: read-out: IC50 cAMP phosphodiesterase; ref Butcher and Sutherland, 1962; cited from earlier work

Structure (SMILES)	effect on UVB-induced Chk1 phosphorylation at serine 345 [1]	plasma concentration of caffeine [2]	IC50 [3]	effect on UV-induced skin carcinogenesis [4]	proportion of cells undergoing apoptosis (sub-2N DNA content) ([5]; 2 mM caffeine 30 min before 75 mJ/cm^2 UVB, 24 h, UVB alone 10% (Figure 1b))	proportion of cells undergoing apoptosis (sub-2N DNA content) ([5]; 2 mM caffeine alone (scrambled siRNA), 75 mJ/cm^2 UVB, 24 h (Figure 2c))	proportion of cells undergoing apoptosis (sub-2N DNA content) ([5]; 2 mM caffeine plus ATR siRNA, 75 mJ/cm^2 UVB, 24 h (Figure 2c))	increase in UVB-induced apoptosis vs UVB alone (relative cell death) ([5]; 2 mM caffeine pretreatment, 75 mJ/cm^2 UVB (Figure 1c))	effect on UVB-induced phosphorylation of Chk1 on Ser345 in the epidermis [6]	effect on UVB-induced cleavage of caspase 3 and PARP [7]	IC50 [8]	effect on UVB-induced apoptosis ([5]; doses up to 300 μM, 30 min before 75 mJ/cm^2 UVB, 24 h (Figure 1d))
Cn1c(=O)c2c(ncn2C)n(C)c1=O [caffeine, Caffeine]	inhibited	3.2 mg/l and 16 μM	200 µM	inhibits	24%	42%	48%	two- to three-fold increase; also recorded: more than doubled	markedly inhibited	augmented	3000 µM	–
CCCC(=O)Nc1ncnc2c1ncn2[C@@H]1O[C@@H]2COP(=O)(O)O[C@H]2[C@H]1OC(=O)CCC [dibutyryl cAMP, N^6,2′-O-Dibutyryladenosine 3′,5′-cyclic monophosphate sodium salt]	–	–	–	–	–	–	–	–	–	–	–	no effect
